Target: human GluN1/GluN2B NMDA receptors (Homo sapiens, UniProt Q05586+Q13224)
Experiment: Cell-based calcium flux (FLIPR) assay on cloned human NR1/NR2B ion channels expressed in mammalian cells
Conditions: standard assay; glutamate at ~EC80; FLIPR calcium flux
How it was run: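 Calcium influx followed by FLIPR fluorescence after 5 min compound exposure and a further 5 min co-agonist challenge: 10 μM glycine with glutamate at ~EC80 (standard) or EC40 (HTS).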

Chain of human GluN1/GluN2B NMDA receptors (Q13224 27-1484, other chains not shown): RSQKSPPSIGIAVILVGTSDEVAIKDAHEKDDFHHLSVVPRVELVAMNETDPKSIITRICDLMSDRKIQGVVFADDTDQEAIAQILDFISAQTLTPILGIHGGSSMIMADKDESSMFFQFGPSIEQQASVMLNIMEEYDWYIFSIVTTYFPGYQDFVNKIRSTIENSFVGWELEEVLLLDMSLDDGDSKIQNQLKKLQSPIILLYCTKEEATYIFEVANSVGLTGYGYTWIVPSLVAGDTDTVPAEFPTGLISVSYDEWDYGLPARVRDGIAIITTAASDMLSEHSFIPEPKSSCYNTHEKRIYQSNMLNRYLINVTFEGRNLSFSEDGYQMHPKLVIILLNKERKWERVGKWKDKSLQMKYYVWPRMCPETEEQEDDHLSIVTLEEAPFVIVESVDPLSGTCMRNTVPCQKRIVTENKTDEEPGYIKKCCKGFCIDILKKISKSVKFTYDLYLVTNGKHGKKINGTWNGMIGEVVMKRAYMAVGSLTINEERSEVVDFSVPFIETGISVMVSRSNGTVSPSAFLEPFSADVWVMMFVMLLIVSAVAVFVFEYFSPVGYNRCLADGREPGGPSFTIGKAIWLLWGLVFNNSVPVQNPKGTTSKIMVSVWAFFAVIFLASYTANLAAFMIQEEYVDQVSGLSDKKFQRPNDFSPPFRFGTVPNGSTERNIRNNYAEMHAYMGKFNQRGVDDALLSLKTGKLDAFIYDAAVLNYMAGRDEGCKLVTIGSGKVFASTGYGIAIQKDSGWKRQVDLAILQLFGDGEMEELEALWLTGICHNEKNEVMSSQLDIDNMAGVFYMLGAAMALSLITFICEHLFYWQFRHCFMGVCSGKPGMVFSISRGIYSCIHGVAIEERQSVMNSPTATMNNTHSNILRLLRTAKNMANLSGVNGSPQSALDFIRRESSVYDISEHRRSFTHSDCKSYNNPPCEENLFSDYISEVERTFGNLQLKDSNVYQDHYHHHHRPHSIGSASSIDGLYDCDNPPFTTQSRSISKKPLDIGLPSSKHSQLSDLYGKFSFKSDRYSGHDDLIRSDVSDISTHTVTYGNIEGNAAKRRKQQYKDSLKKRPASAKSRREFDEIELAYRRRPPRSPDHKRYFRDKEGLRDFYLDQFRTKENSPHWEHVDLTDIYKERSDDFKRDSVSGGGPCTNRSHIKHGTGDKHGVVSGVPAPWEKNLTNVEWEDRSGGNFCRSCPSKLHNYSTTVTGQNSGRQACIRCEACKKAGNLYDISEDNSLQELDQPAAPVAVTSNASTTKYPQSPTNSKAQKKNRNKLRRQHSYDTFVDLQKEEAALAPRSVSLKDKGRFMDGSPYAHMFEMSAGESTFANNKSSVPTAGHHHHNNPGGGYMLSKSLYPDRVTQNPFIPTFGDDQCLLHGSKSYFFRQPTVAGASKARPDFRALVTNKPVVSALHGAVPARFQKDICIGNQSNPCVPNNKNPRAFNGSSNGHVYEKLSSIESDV

Row | SMILES | IC50 [µM]
1 | Fc1ccc(-n2cc(COc3cnccn3)nn2)cc1C(F)(F)F [Example 434, 2-[[1-[4-Fluoro-3-(trifluoromethyl)phenyl]triazol-4-yl]methoxy]pyrazine] | 6.39
2 | Cc1cnc(OCc2cn(-c3cc(C)ccc3F)nn2)nc1 [Example 484, 2-[[1-(2-Fluoro-5-methyl-phenyl)triazol-4-yl]methoxy]-5-methyl-pyrimidine] | 1
3 | COc1ccnc(OCc2cn(-c3ccc(Cl)c(C(C)(F)F)c3)nn2)n1 [Example 541, 2-[[1-[4-Chloro-3-(1,1-difluoroethyl)phenyl]triazol-4-yl]methoxy]-4-methoxy-pyrimidine] | 0.012
4 | Cc1ccc(OCc2cn(-c3ccc(F)c(C(C)(F)F)c3)nn2)nc1 [Example 558, 2-[[1-[3-(1,1-Difluoroethyl)-4-fluoro-phenyl]triazol-4-yl]methoxy]-5-methyl-pyridine] | 0.125
5 | COC(C)(C)c1cnc(OCc2cn(-c3ccc(F)c(C(C)(F)F)c3)nn2)nc1 [Example 567, 2-[[1-[3-(1,1-Difluoroethyl)-4-fluoro-phenyl]triazol-4-yl]methoxy]-5-(1-methoxy-1-methyl-ethyl)pyrimidine] | 4.63
6 | FCCCc1cnc(OCc2cn(-c3ccc(Cl)c(C(F)F)c3)nn2)nc1 [Example 637, 2-[[1-[4-Chloro-3-(difluoromethyl)phenyl]triazol-4-yl]methoxy]-5-(3-fluoropropyl)pyrimidine] | 0.011
7 | Cc1cccc(-n2cc(COc3ncc(Cl)cn3)nn2)n1 [Example 659, 5-Chloro-2-[[1-(6-methyl-2-pyridyl)triazol-4-yl]methoxy]pyrimidine] | > 2.99
8 | CN(C)c1ccnc(OCc2cn(-c3ccc(Cl)c(C(F)F)c3)nn2)n1 [Example 629, 2-[[1-[4-Chloro-3-(difluoromethyl)phenyl]triazol-4-yl]methoxy]-N,N-dimethyl-pyrimidin-4-amine] | 0.007
9 | Cc1cnc(OCc2nnn(-c3ccc(F)c(C(F)F)c3)c2I)nc1 [Example 425, 2-[[1-[3-(Difluoromethyl)-4-fluoro-phenyl]-5-iodo-triazol-4-yl]methoxy]-5-methyl-pyrimidine] | 0.394
10 | COC1CN(c2cnc(OCc3cn(-c4ccc(F)c(C(F)(F)F)c4)nn3)nc2)C1 [Example 460, 2-((1-(3-(Trifluoromethyl)-4-fluorophenyl)-1H-1,2,3-triazol-4-yl)methoxy)-5-(3-methoxyazetidin-1-yl)pyrimidine] | 0.726
11 | Fc1c(-n2cc(COc3ncc(Cl)cn3)nn2)cccc1C(F)(F)F [Example 461, 5-Chloro-2-[[1-[2-fluoro-3-(trifluoromethyl)phenyl]triazol-4-yl]methoxy]pyrimidine] | 0.07
12 | Fc1ccc(-n2cc(COc3ncc(Cl)cn3)nn2)cc1F [Example 600, 5-Chloro-2-[[1-(3,4-difluorophenyl)triazol-4-yl]methoxy]pyrimidine] | 0.238
13 | CC(C)(O)c1cnc(OCc2cn(-c3cc(F)ccc3F)nn2)nc1 [Example 604, 2-[2-[[1-(2,5-Difluorophenyl)triazol-4-yl]methoxy]pyrimidin-5-yl]propan-2-ol] | 79.7
14 | Cc1nc(OCc2cn(-c3ccc(C(F)(F)F)s3)nn2)ncc1F [Example 668, 5-Fluoro-4-methyl-2-((1-(5-(trifluoromethyl)thiophen-2-yl)-1H-1,2,3-triazol-4-yl)methoxy)pyrimidine] | 0.008
15 | CC(C)(O)c1cnc(OCc2cn(-c3ccc(F)c(C(F)F)c3)nn2)nc1 [Example 401, 2-[2-[[1-[3-(Difluoromethyl)-4-fluoro-phenyl]triazol-4-yl]methoxy]pyrimidin-5-yl]propan-2-ol] | 0.017
16 | Cc1c(F)ccc(-n2cc(COc3ncc(OC(F)F)cn3)nn2)c1F [Example 646, 5-(Difluoromethoxy)-2-[[1-(2,4-difluoro-3-methyl-phenyl)triazol-4-yl]methoxy]pyrimidine] | 0.099
17 | Fc1cnc(OCc2cn(-c3ccc(F)c(OC(F)F)c3)nn2)nc1 [Example 492, 2-[[1-[3-(Difluoromethoxy)-4-fluoro-phenyl]triazol-4-yl]methoxy]-5-fluoro-pyrimidine] | 0.026
18 | Cc1cc(C)nc(OCc2cn(-c3ccc(Cl)c(C(C)(F)F)c3)nn2)n1 [Example 546, 2-[[1-[4-Chloro-3-(1,1-difluoroethyl)phenyl]triazol-4-yl]methoxy]-4,6-dimethyl-pyrimidine] | 0.024

Same assay, conditions: standard assay; human GluN1/GluN2B, calcium flux (FLIPR), glutamate ~EC80

Row | SMILES | IC50 [µM]
19 | CC(F)(F)c1cccc(-n2cc(COc3ncc(C(C)(O)C(F)(F)F)cn3)nn2)c1 (racemic) [Example 305, (R/S)-2-[2-[[1-[3-(1,1-Difluoroethyl)phenyl]triazol-4-yl]methoxy]pyrimidin-5-yl]-1,1,1-trifluoro-propan-2-ol] | 0.496
20 | Cc1cnc(NCc2cn(-c3ccc(Cl)c(C(F)F)c3)nn2)nc1 [Example 154, N-[[1-[4-Chloro-3-(difluoromethyl)phenyl]triazol-4-yl]methyl]-5-methyl-pyrimidin-2-amine] | 0.03
21 | COc1cnc(OCc2cn(-c3ccc(C)cc3)nn2)nc1 [Example 258, 5-Methoxy-2-[[1-(p-tolyl)triazol-4-yl]methoxy]pyrimidine] | 0.225
22 | CC(F)(F)c1cccc(-n2cc(COc3ncc(F)cn3)nn2)c1 [Example 295, 2-[[1-[3-(1,1-Difluoroethyl)phenyl]triazol-4-yl]methoxy]-5-fluoro-pyrimidine] | 0.061
23 | Fc1ccc(-n2cc(COc3ccc(C(F)(F)F)cn3)nn2)cc1OC(F)F [Example 119, 2-[[1-[3-(Difluoromethoxy)-4-fluoro-phenyl]triazol-4-yl]methoxy]-5-(trifluoromethyl)pyridine] | 0.114
24 | CC(C)(O)c1cnc(OCc2cn(-c3cccc(C(F)F)c3)nn2)nc1 [Example 272, 2-[2-[[1-[3-(Difluoromethyl)phenyl]triazol-4-yl]methoxy]pyrimidin-5-yl]propan-2-ol] | 0.173
25 | Cc1ccnc(OCc2cn(-c3ccc(F)c(C(F)(F)F)c3)nn2)n1 [Example 83, 2-[[1-[4-Fluoro-3-(trifluoromethyl)phenyl]triazol-4-yl]methoxy]-4-methyl-pyrimidine] | 0.02
26 | Cc1ccnc(OCc2cn(-c3ccc(F)c(C(F)F)c3)nn2)n1 [Example 52, 2-[[1-[3-(Difluoromethyl)-4-fluoro-phenyl]triazol-4-yl]methoxy]-4-methyl-pyrimidine] | 0.008
27 | Fc1ccc(-n2cc(COc3ncccn3)nn2)cc1C(F)F [Example 25, 2-((1-(3-(difluoromethyl)-4-fluorophenyl)-1H-1,2,3-triazol-4-yl)methoxy)pyrimidine] | 0.05
28 | CC(C)(O)c1cnc(OCc2cn(-c3ccc(Cl)c(OC(F)F)c3)nn2)nc1 [Example 385, 2-[2-[[1-[4-Chloro-3-(difluoromethoxy)phenyl]triazol-4-yl]methoxy]pyrimidin-5-yl]propan-2-ol] | 0.028
29 | CCc1cnc(OCc2cn(-c3ccc(F)c(C)c3F)nn2)nc1 [Example 39, 2-[[1-(2,4-Difluoro-3-methyl-phenyl)triazol-4-yl]methoxy]-5-ethyl-pyrimidine] | 0.015
30 | COc1cc(-n2cc(COc3ncccn3)nn2)ccc1Cl [Example 15, 2-[[1-(4-Chloro-3-methoxy-phenyl)triazol-4-yl]methoxy]pyrimidine] | 0.699
31 | COCc1ccnc(OCc2cn(-c3cccc(C(C)(F)F)c3)nn2)n1 [Example 300, 2-[[1-[3-(1,1-Difluoroethyl)phenyl]triazol-4-yl]methoxy]-4-(methoxymethyl)pyrimidine] | 0.008
32 | Cc1cnc(NCc2cn(-c3ccc(F)c(C(F)F)c3)nn2)nc1C [Example 217, N-((1-(3-(Difluoromethyl)-4-fluorophenyl)-1H-1,2,3-triazol-4-yl)methyl)-4,5-dimethylpyrimidin-2-amine] | 0.012
33 | CC(=O)c1cnc(OCc2cn(-c3cccc(C(C)(F)F)c3)nn2)nc1 [Example 309, 1-[2-[[1-[3-(1,1-Difluoroethyl)phenyl]triazol-4-yl]methoxy]pyrimidin-5-yl]ethanone] | 0.01
34 | CCc1cnc(OCc2cn(-c3cccc(C)c3)nn2)nc1 [Example 245, 5-Ethyl-2-[[1-(m-tolyl)triazol-4-yl]methoxy]pyrimidine] | 0.01
35 | Cc1cnc(NCc2cn(-c3ccc(F)c(C)c3)nn2)nc1 [Example 198, N-[[1-(4-Fluoro-3-methyl-phenyl)triazol-4-yl]methyl]-5-methyl-pyrimidin-2-amine] | 0.147
36 | CC(F)(F)c1cc(-n2cc(COc3ncc(Cl)cn3)nn2)ccc1F [Example 69, 5-Chloro-2-[[1-[3-(1,1-difluoroethyl)-4-fluoro-phenyl]triazol-4-yl]methoxy]pyrimidine] | 0.009
37 | COC(=O)c1ccnc(OCc2cn(-c3ccc(Cl)c(OC(F)F)c3)nn2)n1 [Example 387, Methyl 2-((1-(4-chloro-3-(difluoromethoxy)phenyl)-1H-1,2,3-triazol-4-yl)methoxy)pyrimidine-4-carboxylate] | 0.068
38 | CC(=O)c1cnc(OCc2cn(-c3ccc(F)c(C(F)F)c3)nn2)nc1 [Example 156, 1-[2-[[1-[3-(Difluoromethyl)-4-fluoro-phenyl]triazol-4-yl]methoxy]pyrimidin-5-yl]ethanone] | 0.005
39 | CC(C)c1cnc(OCc2cn(-c3ccc(F)c(C(C)(F)F)c3)nn2)nc1 [Example 70, 2-[[1-[3-(1,1-Difluoroethyl)-4-fluoro-phenyl]triazol-4-yl]methoxy]-5-isopropyl-pyrimidine] | 0.044
40 | Cc1cnc(OCc2cn(-c3ccc4c(c3)OC(F)(F)O4)nn2)nc1C [Example 359, 2-[[1-(2,2-Difluoro-1,3-benzodioxol-5-yl)triazol-4-yl]methoxy]-4,5-dimethyl-pyrimidine] | 0.009
41 | COc1cnc(NCc2cn(-c3ccc(Cl)c(C(F)F)c3)nn2)nc1 [Example 203, N-[[1-[4-Chloro-3-(difluoromethyl)phenyl]triazol-4-yl]methyl]-5-methoxy-pyrimidin-2-amine] | 0.03

Reference: patent publication US10233173B2, “Substituted 1,2,3-triazoles as NR2B-selective NMDA modulators” (JANSSEN PHARMACEUTICA NV, priority 2016, dated 2019)
